In patent US8889902B2, “Acetylsalicylic acid salts” (priority 2009, dated 2014):

Legend:
[1] = background statement; cited from earlier work
ICR mice = assay: Acute toxicity of MASA to mice p.o.; type: in vivo; conditions: P = 0.05
Description: (§1) The acute toxicity of MASA was determined on Wistar rats and ICR mice by p.o. introduction.
(§2) Male IRC mice with body mass of 20-22 g and Wistar rats with body mass of 200-230 g were used. For determining the acute toxicity each dose was given to 6 animals, each next dose was increased by 500 mg/kg. LD50 was calculated after Karber by the method of Akhila J S et al, Current Sci 2007; 93:917-920 with modification for determining the dose confidence interval (Turner R In Screening Methods in Pharmacology, Acad. Press, New York, 1965, 61-63).
(§3) LD50 was calculated as follows: LD50=Least dose lethal to all in a group−Σ(a×b)/N N—number of animals in each group a—the dose difference b—the mean mortality (lethality in 2 neighbouring groups/2)
(§4) MASA was dissolved ex tempore in 0.2% agar-agar and introduced per os through catheter into stomach. […] Animals were observed till the Day 10 after introduction.

Wistar rats = assay: Acute toxicity of MASA to rats p.o.; type: in vivo; conditions: P = 0.05
Description: as §1, §2, §3, §4

Row | Compound | solubility in water [1] | confidence interval for LD50 (ICR mice) | confidence interval for LD50 (Wistar rats)
1 | CC(=O)Oc1ccccc1C(=O)O [ASA, acetylsalicylic acid] | about 0.3% | – | –
2 | CC(=O)Oc1ccccc1C(=O)[O-].C[N+](C)(C)NCCC(=O)O [MASA, 3-(trimethylammonioamino)propanoate Acetylsalicylic Acid Addition Salt] | – | Factor f at P = 0.05 for this experiment is 1.32, therefore the confidence interval for LD50 is 1642-2860 (mg/kg). | Factor f at P = 0.05 for this experiment is 1.308, therefore the confidence interval for LD50 is 1720 ÷ 2944 (mg/kg).
